Experimental data taken from ChEMBL document CHEMBL5154765, “Design, synthesis, and biological evaluation of novel spiro[pyrrolidine-2,3'-quinolin]-2'-one derivatives as potential chitin synthase inhibitors and antifungal agents” (Eur J Med Chem, 2022).
≈ marks a conversion by molar mass, not a printed value. *1 amine or outer side, *2 acyl side, *3 side chain or, on linkers, in order; H or OH if unused. Where a SMILES comes first, the peptide text is derived from it. Bridges are numbered along the chain shown (N, C = ends). [ ]: non-standard residue; d: D form. The star is where a group is joined. hTyr(3S-OH,4S-OH,3'-OSO3H) = N[C@H](C(=O)O)[C@H](O)[C@@H](O)c1ccc(O)c(OS(=O)(=O)O)c1; Orn(4R-OH,5R-OH) = O=C([C@H](C[C@@H](O)[C@@H](O)N[*:3])N[*:1])[*:2]; Pro(3S-OH,4S-Me) = C[C@H]1CN[C@H](C(=O)O)[C@H]1O; X1 = CCCCCOc1ccc(-c2cc(-c3ccc(C(=O)*)cc3)no2)cc1; Gln(3R-OH) = NC(=O)C[C@@H](O)[C@H](N)C(=O)O; Hyp = O=C(O)[C@@H]1C[C@@H](O)CN1

Assays:
Candida tropicalis = experiment: Inhibition of Candida tropicalis ATCC750 chitin synthase at 300 ug/ml using UDP-GlcNAc as substrate incubated for 1 hr by microplate reader analysis relative to control; settings: dose 300.0 µg/ml
Aspergillus fumigatus [1] = experiment: Antifungal activity against Aspergillus fumigatus GIMCC 3.19 assessed as reduction in fungal growth incubated for 24 hrs by two fold broth dilution method; type: functional
[2] = Inhibition of Candida tropicalis ATCC750 chitin synthase using UDP-GlcNAc as substrate incubated for 1 hr by microplate reader analysis
Cryptococcus neoformans [3] = experiment: Antifungal activity against Cryptococcus neoformans ATCC 32719 assessed as reduction in fungal growth incubated for 24 hrs by two fold broth dilution method; type: functional
Aspergillus flavus [4] = experiment: Antifungal activity against Aspergillus flavus ATCC 16870 assessed as reduction in fungal growth incubated for 24 hrs by two fold broth dilution method; type: functional
Candida albicans [5] = experiment: Antifungal activity against Candida albicans ATCC 76615 assessed as reduction in fungal growth incubated for 24 hrs by two fold broth dilution method; type: functional
Candida albicans [6] = experiment: Antifungal activity against fluconazole resistant Candida albicans ATCC 76615 assessed as reduction in fungal growth incubated for 24 hrs by two fold broth dilution method; type: functional
Aspergillus flavus [7] = experiment: Antifungal activity against fluconazole resistant Aspergillus flavus ATCC 16870 assessed as reduction in fungal growth incubated for 24 hrs by two fold broth dilution method; type: functional
Aspergillus fumigatus [8] = experiment: Antifungal activity against fluconazole resistant Aspergillus fumigatus GIMCC 3.19 assessed as reduction in fungal growth incubated for 24 hrs by two fold broth dilution method; type: functional
Cryptococcus neoformans [9] = experiment: Antifungal activity against fluconazole resistant Cryptococcus neoformans ATCC 32719 assessed as reduction in fungal growth incubated for 24 hrs by two fold broth dilution method; type: functional
Candida albicans [10] = experiment: Antifungal activity against micafungin resistant Candida albicans ATCC 76615 assessed as reduction in fungal growth incubated for 24 hrs by two fold broth dilution method; type: functional
Cryptococcus neoformans [11] = experiment: Antifungal activity against Cryptococcus neoformans ATCC 32719 assessed as reduction in fungal growth in presence of sorbitol incubated for 24 hrs by two fold broth dilution method; type: functional
Aspergillus flavus [12] = experiment: Antifungal activity against Aspergillus flavus ATCC 16870 assessed as reduction in fungal growth in presence of sorbitol incubated for 24 hrs by two fold broth dilution method; type: functional
Candida albicans [13] = experiment: Antifungal activity against Candida albicans ATCC 76615 assessed as reduction in fungal growth in presence of sorbitol incubated for 24 hrs by two fold broth dilution method; type: functional
Aspergillus fumigatus [14] = experiment: Antifungal activity against Aspergillus fumigatus GIMCC 3.19 assessed as reduction in fungal growth in presence of sorbitol incubated for 24 hrs by two fold broth dilution method; type: functional

Compound | inhibition (Candida tropicalis) | MIC (Aspergillus fumigatus [1]) | IC50 [2] | MIC (Cryptococcus neoformans [3]) | MIC (Aspergillus flavus [4]) | MIC (Candida albicans [5]) | MIC (Candida albicans [6]) | MIC (Aspergillus flavus [7]) | MIC (Aspergillus fumigatus [8]) | MIC (Cryptococcus neoformans [9]) | MIC (Candida albicans [10]) | MIC (Cryptococcus neoformans [11]) | MIC (Aspergillus flavus [12]) | MIC (Candida albicans [13]) | MIC (Aspergillus fumigatus [14])
Cc1cc(C)cc(NC(=O)/C=C/C(=O)N2CCCC23Cc2ccccc2NC3=O)c1 (stereo not drawn) | 45.7% | 32 µg/mL (≈ 79.3 µM) | 990 µM | 32 µg/mL (≈ 79.3 µM) | 32 µg/mL (≈ 79.3 µM) | 16 µg/mL (≈ 39.7 µM) |  |  |  |  |  |  |  |  | 
O=C(/C=C/C(=O)N1CCCC12Cc1ccccc1NC2=O)Nc1cccc2ccccc12 (stereo not drawn) | 53.6% | 16 µg/mL (≈ 37.6 µM) | 570 µM | 64 µg/mL (≈ 150 µM) | 16 µg/mL (≈ 37.6 µM) | 8 µg/mL (≈ 18.8 µM) |  |  |  |  |  |  |  |  | 
OC(Cn1cncn1)(Cn1cncn1)c1ccc(F)cc1F [FLUCONAZOLE] |  | 4 µg/mL (≈ 13.1 µM) |  | 8 µg/mL (≈ 26.1 µM) | 8 µg/mL (≈ 26.1 µM) | 4 µg/mL (≈ 13.1 µM) | > 256 µg/mL | > 256 µg/mL | > 256 µg/mL | > 256 µg/mL |  |  |  |  | 
CCCCCOc1ccc(-c2cc(-c3ccc(C(=O)N[C@H]4C[C@@H](O)[C@@H](O)NC(=O)[C@@H]5[C@@H](O)[C@@H](C)CN5C(=O)[C@H]([C@H](O)CC(N)=O)NC(=O)[C@H]([C@H](O)[C@@H](O)c5ccc(O)c(OS(=O)(=O)O)c5)NC(=O)[C@@H]5C[C@@H](O)CN5C(=O)[C@H]([C@@H](C)O)NC4=O)cc3)no2)cc1 [MICAFUNGIN] (X1-[Orn(4R-OH,5R-OH)]T[Hyp][hTyr(3S-OH,4S-OH,3'-OSO3H)][Gln(3R-OH)][Pro(3S-OH,4S-Me)]; lactam 1-C) |  |  |  |  |  |  |  |  |  |  | > 256 µg/mL |  |  |  | 
Cc1cccc(NC(=O)/C=C/C(=O)N2CCCC23Cc2ccccc2NC3=O)c1 (stereo not drawn) | 44.1% | 64 µg/mL (≈ 164 µM) | 1210 µM | 128 µg/mL (≈ 329 µM) | 32 µg/mL (≈ 82.2 µM) | 16 µg/mL (≈ 41.1 µM) |  |  |  |  |  |  |  |  | 
O=C(/C=C/C(=O)N1CCCC12Cc1ccccc1NC2=O)Nc1ccc(Cl)cc1Cl (stereo not drawn) | 73.7% | 8 µg/mL (≈ 18 µM) | 170 µM | 16 µg/mL (≈ 36 µM) | 8 µg/mL (≈ 18 µM) | 4 µg/mL (≈ 9 µM) | 64 µg/mL (≈ 144 µM) | 64 µg/mL (≈ 144 µM) | 64 µg/mL (≈ 144 µM) | 64 µg/mL (≈ 144 µM) | 64 µg/mL (≈ 144 µM) | 128 µg/mL | 128 µg/mL | 64 µg/mL | 64 µg/mL
O=C(/C=C/C(=O)N1CCCC12Cc1ccccc1NC2=O)Nc1ccc(Cl)cc1 (stereo not drawn) | 71.8% | 4 µg/mL (≈ 9.76 µM) | 170 µM | 16 µg/mL (≈ 39 µM) | 8 µg/mL (≈ 19.5 µM) | 4 µg/mL (≈ 9.76 µM) | 128 µg/mL (≈ 312 µM) | 64 µg/mL (≈ 156 µM) | 64 µg/mL (≈ 156 µM) | 128 µg/mL (≈ 312 µM) | 128 µg/mL (≈ 312 µM) | 128 µg/mL | 64 µg/mL | 32 µg/mL | 64 µg/mL
Cc1ccccc1NC(=O)/C=C/C(=O)N1CCCC12Cc1ccccc1NC2=O (stereo not drawn) | 47.2% | 8 µg/mL (≈ 20.5 µM) | 970 µM | 64 µg/mL (≈ 164 µM) | 16 µg/mL (≈ 41.1 µM) | 8 µg/mL (≈ 20.5 µM) |  |  |  |  |  |  |  |  | 
